Data: ChEMBL document CHEMBL1201862, “PubChem BioAssay data set” (2004)
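In this assay, cells in 96-well plates receive the compound at five concentrations for 48 hours. Endpoints are linearly interpolated between the surrounding concentrations. Abbreviation: GI50, concentration required for 50% inhibition of growth.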 The source made the active and inactive calls. Rule as the data show it: active = GI50 up to about 1.1 µM and inactive = higher.

Experiments:
Experiment in all cases: inhibition of tumour cell growth, NCI panel, 48 h
[1] = system: 786-0
[2] = system: A498
[3] = system: A549
[4] = system: ACHN
[5] = system: BT-549
[6] = system: CAKI-1
[7] = system: CCRF-CEM
[8] = system: COLO 205
[9] = system: DU-145
[10] = system: EKVX
[11] = system: HCC 2998
[12] = system: HCT-116
[13] = system: HCT-15
[14] = system: HL-60
[15] = system: HOP-62
[16] = system: HOP-92
[17] = system: HT-29
[18] = system: Hs-578T
[19] = system: IGROV-1
[20] = system: K562
[21] = system: LOX IMVI
[22] = system: M14
[23] = system: MCF7
[24] = system: MDA-MB-231
[25] = system: MDA-MB-435
[26] = system: MDA-N
[27] = system: MOLT-4
[28] = system: NCI-H23
[29] = system: NCI-H460
[30] = system: NCI-H522
[31] = system: NCI/ADR-RES
[32] = system: OVCAR-3
[33] = system: OVCAR-4
[34] = system: OVCAR-5
[35] = system: OVCAR-8
[36] = system: PC-3
[37] = system: RXF 393
[38] = system: SF-268
[39] = system: SF-295
[40] = system: SF-539
[41] = system: SK-MEL-28
[42] = system: SK-MEL-2
[43] = system: SK-MEL-5
[44] = system: SN12C
[45] = system: SNB-19
[46] = system: SR
[47] = system: SW-620
[48] = system: T47D
[49] = system: TK-10
[50] = system: U-251
[51] = system: UACC-257
[52] = system: UACC-62
[53] = system: UO-31

Measured: GI50

N#CCCSC1SC(=C2SC3=C(SCCS3)S2)SC1SCCC#N (stereo not drawn)
> 100 µM: [13]
inactive: [1] > 100 µM | [2] > 100 µM | [3] > 100 µM | [4] > 100 µM | [5] > 100 µM | [6] > 100 µM | [7] > 100 µM | [8] > 100 µM | [9] > 100 µM | [10] > 100 µM | [11] > 100 µM | [12] > 100 µM | [14] > 100 µM | [15] > 100 µM | [16] > 100 µM | [17] > 100 µM | [18] > 100 µM | [19] > 100 µM | [20] > 100 µM | [21] > 100 µM | [22] > 100 µM | [23] > 100 µM | [24] > 100 µM | [25] > 100 µM | [26] > 100 µM | [27] > 100 µM | [28] > 100 µM | [29] > 100 µM | [30] > 100 µM | [31] > 100 µM | [32] > 100 µM | [33] > 100 µM | [34] > 100 µM | [35] > 100 µM | [36] > 100 µM | [37] > 100 µM | [38] > 100 µM | [39] > 100 µM | [40] > 100 µM | [41] > 100 µM | [42] > 100 µM | [43] > 100 µM | [44] > 100 µM | [45] > 100 µM | [46] > 100 µM | [47] > 100 µM | [48] > 100 µM | [49] > 100 µM | [50] > 100 µM | [51] > 100 µM | [52] > 100 µM | [53] > 100 µM
